Results: patent publication US12458605B2, “Lipid nanoparticle” (National University Corporation Hokkaido University, priority 2020, dated 2025)

Assays:
[1] = Average particle size (ζ-Average) and PDI by dynamic light scattering (Zetasizer Nano ZSP); format: physicochemical
Procedure: The average particle size (ζ-Average) and PDI in PBS(−) of lipid nanoparticles were measured using “Zetasizer Nano ZSP”, an analyzer utilizing dynamic light scattering (manufactured by Malvern).
Measurement of average particle size and PDI of the lipid nanoparticles were carried out with the same method as the measurement of average particle size of mRNA-LNP.
The average particle size (ζ-Average) and PDI in PBS (−) of lipid nanoparticles were measured using “Zetasizer Nano ZSP”, an analyzer utilizing dynamic light scattering (manufactured by Malvern).

spleen = assay: In vivo Fluc activity of FlucmRNA-loaded LNP by in vivo imaging, spleen; settings: Balb/c mice, 6 hours; for Fluc Activity in spleen: FlucmRNA-loaded LNP i.v. 0.1 mg mRNA/kg; for Fluc activity in the spleen, compared with CL4F6: versus LNP comprising CL4F6 (Tables 5 and 6)
Procedure: (§1) Then, each prepared FlucmRNA-loaded lipid nanoparticles were administered to Balb/c mice (Charles River Laboratories Japan, Inc., 7 weeks old, female) and in vivo gene expression activity was examined. Specifically, each FlucmRNA-loaded lipid nanoparticles were intravenously administered to Balb/c mice at 0.1 mg mRNA/kg, and Fluc activities in the liver and spleen at 6 hours later were measured. Fluc activity was measured by in vivo imaging system (Perkin Elmer, IVIS200) after administration of VivoGlo Luciferin, In Vivo Grade (Promega, P1041) dissolved with PBS to 15 mg/mL, via tail vein at a dose of 1.5 mg per mouse. The unit of Fluc activity is the emission intensity per unit area (Avg Radiance [p/s/cm2/sr]) at the maximum emission wavelength of about 560 nm. The results of measurement of the Fluc activity (Avg Radiance [p/s/cm2/sr]) in the liver and spleen of mice administered each FlucmRNA-loaded lipid nanoparticles are shown in Tables 5-7.

F7 = assay: In vivo F7 knockdown, plasma F7 enzyme activity (BIOPHEN FVII), Balb/c mice; settings: i.v. 0.025 mg siRNA/kg, plasma at 24 hours; for F7 enzyme activity (Ratio using MC3 as 1): relative plasma F7 activity of MC3 LNP as 1
Procedure: Then, each prepared F7siRNA-loaded lipid nanoparticles were administered to Balb/c mice (Charles River Laboratories Japan, Inc., 5 weeks old, female) and in vivo F7 knockdown activity was examined. Specifically, BALB/c mice were intravenously administered F7siRNA-loaded lipid nanoparticles comprising the lipids described in Table 9 at 0.025 mg siRNA/kg and F7siRNA-loaded lipid nanoparticles comprising the lipids described in Tables 10 and 11 at 0.025 mg siRNA/kg, and the plasma F7 enzyme activity at 24 hours later was measured using BIOPHEN FVII (Biophen, A221304). Relative plasma F7 enzyme activity (%) of mice administered each F7siRNA-loaded lipid nanoparticles was calculated using plasma F7 enzyme activity of untreated mice as 100%. Furthermore, the ratio was calculated using the relative plasma F7 enzyme activity (%) of mice administered MC3-comprising F7siRNA-loaded lipid nanoparticles as 1. The results of measurement of CL4F6 derivative nanoparticles are shown in Tables 9 and 10, and results of measurement of CL15F6 derivative nanoparticles in Table 11.

[2] = siRNA/mRNA encapsulation rate by Ribogreen reagent (section IV); format: physicochemical; settings: for % siRNA encapsulation: F7siRNA-loaded LNP, 50:10:38.5:1.5, N/P ratio 6; for % mRNA encapsulation: FlucmRNA-loaded LNP, 50:10:38.5:1.5
Procedure: The encapsulation rates of siRNA and mRNA of lipid nanoparticles were measured with Ribogreen reagent. A solution diluted with TE buffer solution was arranged so that lipid nanoparticle concentration as nucleic acid concentration to be 8 μg/mL, as a solution for measuring nanoparticle surface nucleic acid concentration. In addition, a solution for measuring total nucleic acid concentration was arranged so that lipid nanoparticle concentration as nucleic acid concentration to be 1.2 μg/mL, which is 1% (w/w) concentration of X-triton100, by adding X-triton100. For 100 μL of each solution, 100 μL of Ribogreen (registered trademark) reagent (Quant-iT™ RiboGreen™ RNA Reagent, manufactured by Thermofisher Scientific) was mixed well in the wells of 96-well microplate (black, made of polystyrene, flat bottom, manufactured by Corning), and the fluorescence intensity at an excitation wavelength of 485 nm and a measurement wavelength of 528 nm was measured with a microplate reader. Nucleic acid concentration was calculated by calibration curve created by measuring the fluorescence intensity of nucleic acid solution containing 1% X-triton100 (nucleic acid concentration: 0-2.5 μg/mL) as same as aforementioned. Nucleic acid encapsulation rate of each lipid nanoparticle was calculated by the following formula: Encapsulation rate %=(nucleic acid concentration in solution for measuring total nucleic acid concentration (μg/mL)−nucleic acid concentration in solution for measuring nanoparticle surface nucleic acid concentration (μg/mL))/nucleic acid concentration in solution for measuring total nucleic acid concentration (μg/mL)×100. <Results>
The encapsulation rate of mRNA of lipid nanoparticles was measured using Ribogreen (manufactured by life technologies).

liver = assay: In vivo Fluc activity of FlucmRNA-loaded LNP by in vivo imaging, liver; settings: Balb/c mice, FlucmRNA-loaded LNP i.v. 0.1 mg mRNA/kg, 6 hours
Procedure: as §1

[3] = Storage stability of FlucmRNA-loaded LNP at −80, 5, 25 and 40° C.; format: physicochemical; settings: for period for which quality remained good, −80° C.: maximum storage period 1 week; for quality at production (storage stability criteria): criteria: PDI 0.2 or less, encapsulation 80% or more
Procedure: Lipid nanoparticles were allowed to stand at each temperature of −80° C., 5° C., 25° C., and 40° C., and after keeping for each period of time, average particle size, PDI, and nucleic acid encapsulation rate were measured. Lipid nanoparticles which satisfy following all three conditions were defined that the quality was remained well: the average particle size is maintained within +/−20 nm based on the date of LNP preparation; PDI remains high uniformity with a value of 0.2 or less; and the nucleic acid encapsulation rate is also maintained at 80% or more. As a result of measuring average particle size, PDI, and nucleic acid encapsulation rate after each FlucmRNA-loaded lipid nanoparticle was allowed to stand at −80° C., 5° C., 25° C., and 40° C. respectively and kept for each period of time, periods of time defined as the quality of the lipid nanoparticles was remained well are shown in Tables 13 and 14. The lipid nanoparticles which remain in good quality with standing at 5° C. for one week or more can be evaluated as having excellent stability.

[4] = F7siRNA-loaded LNP, 50:10:38.5:1.5, N/P ratio 6
[5] = FlucmRNA-loaded LNP, 50:10:38.5:1.5
[6] = FlucmRNA-loaded LNP, lipid:DSPC:cholesterol:DMG-PEG2K 50:10:38.5:1.5

CCCCCCCCC(CCCCC)C(=O)OCCCCCCC(O)(CCCCCCOC(=O)C(CCCCC)CCCCCCCC)CCCCOC(=O)C1CCN(C)CC1 (centres unmarked) [CL15F 10-5]
PDI [1, 4]: 0.003 | ζ-Average (nm) [1, 4]: 111.7 nm | PDI [1, 5]: 0.047 | ζ-Average (nm) [1, 6]: 113.90 nm | Fluc activity in the spleen, compared with CL15F6 (spleen; 0.1 mg mRNA/kg, versus LNP comprising CL15F6 (Table 7)): higher Fluc activity | Fluc Activity in spleen (spleen): 7.55E+06 Avg Radiance [p/s/cm2/sr] | F7 enzyme activity (Ratio using MC3 as 1) (F7): 1.33 | % siRNA encapsulation [2]: 100.5% | % mRNA encapsulation [2]: 99.4% | Fluc Activity in liver (liver): 2.70E+06 Avg Radiance [p/s/cm2/sr] | period for which quality remained good, −80° C. [3]: 1 week | period for which quality remained good, 5° C. ([3]; maximum storage period 5 weeks): 5 weeks | period for which quality remained good, 25° C. ([3]; maximum storage period 5 weeks): 5 weeks | period for which quality remained good, 40° C. (weeks) ([3]; maximum storage period 5 weeks): 5 weeks

CCCCCC(CCCC)C(=O)OCCCCCCC(O)(CCCCCCOC(=O)C(CCCC)CCCCC)CCCCN(CCC)CCC (centres unmarked) [CL4F 7-4]
PDI [1, 5]: 0.032 | ζ-Average (nm) [1, 6]: 113.50 nm | Fluc activity in the spleen, compared with CL4F6 (spleen; 0.1 mg mRNA/kg): higher Fluc activity | Fluc Activity in spleen (spleen): 7.43E+06 Avg Radiance [p/s/cm2/sr] | % mRNA encapsulation [2]: 98.8% | Fluc Activity in liver (liver): 5.05E+06 Avg Radiance [p/s/cm2/sr] | period for which quality remained good, −80° C. [3]: 0 week | period for which quality remained good, 5° C. ([3]; maximum storage period 5 weeks): 5 weeks | period for which quality remained good, 25° C. ([3]; maximum storage period 5 weeks): 5 weeks | period for which quality remained good, 40° C. (weeks) ([3]; maximum storage period 5 weeks): 1 week weeks

CCCCCCCCCCC(CCCCCCCCCC)C(=O)OCCCCCCC(O)(CCCCCCOC(=O)C(CCCCCCCCCC)CCCCCCCCCC)CCCCN(CCC)CCC [CL4F 12-10]
PDI [1, 4]: 0.015 | ζ-Average (nm) [1, 4]: 85.62 nm | PDI [1, 5]: 0.019 | ζ-Average (nm) [1, 6]: 75.85 nm | Fluc Activity in spleen (spleen): 2.77E+05 Avg Radiance [p/s/cm2/sr] | F7 enzyme activity (%) (F7; untreated mice as 100%): 80.6% | % siRNA encapsulation [2]: 99.2% | % mRNA encapsulation [2]: 99.6% | Fluc Activity in liver (liver): 3.09E+07 Avg Radiance [p/s/cm2/sr] | period for which quality remained good, −80° C. [3]: 1 week | period for which quality remained good, 5° C. ([3]; maximum storage period 5 weeks): 5 weeks | period for which quality remained good, 25° C. ([3]; maximum storage period 5 weeks): 5 weeks | period for which quality remained good, 40° C. (weeks) ([3]; maximum storage period 5 weeks): 5 weeks

7-hydroxy-7-(4-((1-methylpiperidine-4-carbonyl)oxy)butyl)tridecan-1,13-diyl bis(2-(4,4-dimethylpentan-2-yl)-5,7,7-trimethyloctanoate [CL15G6]
period for which quality remained good, −80° C. [3]: 1 week | period for which quality remained good, 5° C. ([3]; maximum storage period 5 weeks): 5 weeks | period for which quality remained good, 25° C. ([3]; maximum storage period 5 weeks): 5 weeks | period for which quality remained good, 40° C. (weeks) ([3]; maximum storage period 5 weeks): 5 weeks

CCCCCCCC(CCCC)C(=O)OCCCCCCC(O)(CCCCCCOC(=O)C(CCCC)CCCCCCC)CCCCN(CCC)CCC (centres unmarked) [CL4F 9-4]
PDI [1, 5]: 0.002 | ζ-Average (nm) [1, 6]: 95.29 nm | Fluc activity in the spleen, compared with CL4F6 (spleen; 0.1 mg mRNA/kg): higher Fluc activity | Fluc Activity in spleen (spleen): 8.69E+06 Avg Radiance [p/s/cm2/sr] | % mRNA encapsulation [2]: 99.1% | Fluc Activity in liver (liver): 2.55E+07 Avg Radiance [p/s/cm2/sr] | period for which quality remained good, −80° C. [3]: 1 week | period for which quality remained good, 5° C. ([3]; maximum storage period 5 weeks): 5 weeks | period for which quality remained good, 25° C. ([3]; maximum storage period 5 weeks): 5 weeks | period for which quality remained good, 40° C. (weeks) ([3]; maximum storage period 5 weeks): 1 week weeks

CCCCCCCCCCCCCCCC(=O)OCCCCCCC(O)(CCCCCCOC(=O)CCCCCCCCCCCCCCC)CCCCN(CCC)CCC [CL4F 16-0]
PDI [1, 5]: 0.225 | ζ-Average (nm) [1, 6]: 158.30 nm | Fluc Activity in spleen (spleen): 2.83E+05 Avg Radiance [p/s/cm2/sr] | % mRNA encapsulation [2]: 86.2% | Fluc Activity in liver (liver): 2.32E+04 Avg Radiance [p/s/cm2/sr] | quality at production (storage stability criteria) [3]: Does not meet the criteria for “good” at production

CCCCCC(CCC)C(=O)OCCCCCCC(O)(CCCCCCOC(=O)C(CCC)CCCCC)CCCCN(CCC)CCC (centres unmarked) [CL4F 7-3]
PDI [1, 5]: 0.025 | ζ-Average (nm) [1, 6]: 133.90 nm | Fluc Activity in spleen (spleen): 6.64E+05 Avg Radiance [p/s/cm2/sr] | % mRNA encapsulation [2]: 98.1% | Fluc Activity in liver (liver): 3.43E+05 Avg Radiance [p/s/cm2/sr] | period for which quality remained good, −80° C. [3]: 0 week | period for which quality remained good, 5° C. ([3]; maximum storage period 5 weeks): 5 weeks | period for which quality remained good, 25° C. ([3]; maximum storage period 5 weeks): 5 weeks | period for which quality remained good, 40° C. (days) ([3]; maximum storage period 5 weeks): 0 day days

CCCCC(CC)C(=O)OCCCCCCC(O)(CCCCCCOC(=O)C(CC)CCCC)CCCCOC(=O)C1CCN(C)CC1 (centres unmarked) [CL15F 6-2]
PDI [1, 4]: 0.534 | ζ-Average (nm) [1, 4]: 390.7 nm | F7 enzyme activity (Ratio using MC3 as 1) (F7): 1.87 | % siRNA encapsulation [2]: 100.4% | quality at production (storage stability criteria) [3]: Does not meet the criteria for “good” at production

CCCCCCCC(CCCCCC)C(=O)OCCCCCCC(O)(CCCCCCOC(=O)C(CCCCCC)CCCCCCC)CCCCN(CCC)CCC (centres unmarked) [CL4F 9-6]
PDI [1, 5]: 0.021 | ζ-Average (nm) [1, 6]: 89.18 nm | Fluc Activity in spleen (spleen): 3.89E+06 Avg Radiance [p/s/cm2/sr] | % mRNA encapsulation [2]: 99.1% | Fluc Activity in liver (liver): 9.61E+07 Avg Radiance [p/s/cm2/sr] | period for which quality remained good, −80° C. [3]: 1 week | period for which quality remained good, 5° C. ([3]; maximum storage period 5 weeks): 5 weeks | period for which quality remained good, 25° C. ([3]; maximum storage period 5 weeks): 5 weeks | period for which quality remained good, 40° C. (weeks) ([3]; maximum storage period 5 weeks): 5 weeks

CCCCC(CCCC)C(=O)OCCCCCCC(O)(CCCCCCOC(=O)C(CCCC)CCCC)CCCCN(CCC)CCC [CL4F 6-4]
PDI [1, 5]: 0.023 | ζ-Average (nm) [1, 6]: 141.10 nm | Fluc Activity in spleen (spleen): 2.95E+05 Avg Radiance [p/s/cm2/sr] | % mRNA encapsulation [2]: 97.2% | Fluc Activity in liver (liver): 2.17E+05 Avg Radiance [p/s/cm2/sr] | period for which quality remained good, −80° C. [3]: 0 week | period for which quality remained good, 5° C. ([3]; maximum storage period 5 weeks): 5 weeks | period for which quality remained good, 25° C. ([3]; maximum storage period 5 weeks): 5 weeks | period for which quality remained good, 40° C. ([3]; maximum storage period 5 weeks): 3 days
